“And” between values parts separate entries of the source, which are not always exact repeats. Identical values can stand only once.
Test: Plasma pharmacokinetics of lorlatinib at steady state (LC-MS/MS, non-compartmental analysis)
Format: in vivo, human
Parameters: Vz_F / Cmax_D / AUMClast / AUMC_TAU: unit not given here
Settings: for Tlag: unit assumed
Description: Lorlatinib was isolated from human plasma by a liquid-iquid extraction procedure. […] A linear-log trapezoidal method was used [NT] A best-fit method was used to estimate terminal elimination and to extrapolate any plasma concentration versus time profiles to compute [NT].

[1] = Cohort A1, 45 mg/m2 per dose, C1D15, Max, N 3
[2] = Cohort A1, 45 mg/m2 per dose, C1D15, Min, N 3
[3] = Cohort A1, 45 mg/m2 per dose, C1D15, individual patient
[4] = Cohort A1, 60 mg/m2 per dose, C1D15, Max, N 3
[5] = Cohort A1, 60 mg/m2 per dose, C1D15, Min, N 3
[6] = Cohort A1, 60 mg/m2 per dose, C1D15, individual patient
[7] = Cohort A1, 75 mg/m2 per dose, C1D15, Max, N 3
[8] = Cohort A1, 75 mg/m2 per dose, C1D15, Min, N 3
[9] = Cohort A1, 75 mg/m2 per dose, C1D15, individual patient
[10] = Cohort A1, 95 mg/m2 per dose, C1D15, Max, N 9
[11] = Cohort A1, 95 mg/m2 per dose, C1D15, Min, N 9
[12] = Cohort A1, 95 mg/m2 per dose, C1D15, individual patient
[13] = Cohort A1, 115 mg/m2 per dose, C1D15, Max, N 6
[14] = Cohort A1, 115 mg/m2 per dose, C1D15, Min, N 6
[15] = Cohort A1, 115 mg/m2 per dose, C1D15, individual patient
[16] = Cohort A2, 100 mg per dose, C1D15, Max, N 5
[17] = Cohort A2, 100 mg per dose, C1D15, Min, N 5
[18] = Cohort A2, 100 mg per dose, C1D15, individual patient
[19] = Cohort A2, 150 mg per dose, C1D15, Min, N 10
[20] = Cohort A2, 150 mg per dose, C1D15, individual patient
[21] = Cohort B2, 95 mg/m2 per dose, C1D15, Min, N 2
[22] = Cohort B2, 95 mg/m2 per dose, C1D15, individual patient
[23] = Cohort B2, 115 mg/m2 per dose, C1D15, Max, N 6
[24] = Cohort B2, 115 mg/m2 per dose, C1D15, Min, N 6
[25] = Cohort B2, 115 mg/m2 per dose, C1D15, individual patient
[26] = Cycle 1 Day 1, Cohort A1, 95 mg/m2 per dose
[27] = Cycle 1 Day 1, Cohort A1, 115 mg/m2 per dose
[28] = Cycle 1 Day 1, Cohort A2, 150 mg per dose
[29] = Cycle 1 Day 1, Cohort A2, 150 mg per dose, in h (unit assumed)
[30] = Cycle 1 Day 1, Cohort A2, 150 mg per dose, in ng·h/mL (unit assumed)

C[C@H]1Oc2cc(cnc2N)-c2c(nn(C)c2C#N)CN(C)C(=O)c2ccc(F)cc21 [Lorlatinib, (10R)-7-amino-12-fluoro-2,10,16-trimethyl-15-oxo-10,15,16,17-tetrahydro-2H-8,4-(metheno)pyrazolo[4,3-h][2,5,11]-benzoxadiazacyclotetradecine-3-carbonitrile]
AUCtau or Cmax at steady state with oral dispersion formulation (17 patients who received the oral dispersion formulation): no differences | CLss_F (Cohort A1, 45 mg/m2 per dose, C1D15, Geometric Mean, N 3): 15.376 L/h | AUC_TAU [1]: 3727.9 ng·h/mL | CLss_F [1]: 19.85 L/h | Cmax [1]: 639 ng/mL | Tmax [1]: 2 h | AUC_TAU [2]: 1259.74 ng·h/mL | Cmax [2]: 243 ng/mL | Tmax [2]: 1 h | AUC_TAU [3]: 1259.74 ng·h/mL and 3727.9 ng·h/mL | CLss_F [3]: 19.85 L/h and 12.41 L/h and 14.75 L/h | Cmax [3]: 639 ng/mL and 243 ng/mL | Tmax [3]: 2 h | CLss_F (Cohort A1, 60 mg/m2 per dose, C1D15, Geometric Mean, N 3): 13.223 L/h | AUC_TAU [4]: 4173.07 ng·h/mL | CLss_F [4]: 16.77 L/h | Cmax [4]: 623 ng/mL | Tmax [4]: 2 h | CLss_F (Cohort A1, 60 mg/m2 per dose, C1D15, Median, N 3): 12.07 L/h | AUC_TAU [5]: 3503.02 ng·h/mL | CLss_F [5]: 11.42 L/h | Cmax [5]: 343 ng/mL | Tmax [5]: 1 h | AUC_TAU [6]: 3503.02 ng·h/mL and 4173.07 ng·h/mL | CLss_F [6]: 12.07 L/h and 11.42 L/h and 16.77 L/h | Cmax [6]: 343 ng/mL | Tmax [6]: 2 h | CLss_F (Cohort A1, 75 mg/m2 per dose, C1D15, Geometric Mean, N 3): 15.412 L/h | AUC_TAU [7]: 6555.75 ng·h/mL | CLss_F [7]: 18.36 L/h | Cmax [7]: 670 ng/mL | Tmax [7]: 6 h | CLss_F (Cohort A1, 75 mg/m2 per dose, C1D15, Median, N 3): 17.43 L/h | AUC_TAU [8]: 2723.69 ng·h/mL | CLss_F [8]: 11.44 L/h | Cmax [8]: 609 ng/mL | Tmax [8]: 1 h | AUC_TAU [9]: 6555.75 ng·h/mL and 2723.69 ng·h/mL | CLss_F [9]: 11.44 L/h and 17.43 L/h and 18.36 L/h | Cmax [9]: 609 ng/mL and 670 ng/mL | Tmax [9]: 6 h and 2 h | CLss_F (Cohort A1, 95 mg/m2 per dose, C1D15, Geometric Mean, N 9): 9.802 L/h | AUC_TAU [10]: 14697.9 ng·h/mL | CLss_F [10]: 14.62 L/h | Cmax [10]: 1880 ng/mL | CLss_F (Cohort A1, 95 mg/m2 per dose, C1D15, Median, N 9): 10.12 L/h | AUC_TAU [11]: 3760.87 ng·h/mL | CLss_F [11]: 6.46 L/h | Cmax [11]: 590 ng/mL | Tmax [11]: 1 h | AUC_TAU [12]: 14697.9 ng·h/mL and 11566.7 ng·h/mL and 5234.23 ng·h/mL and 6616.73 ng·h/mL and 4786.75 ng·h/mL and 7725.79 ng·h/mL and 3760.87 ng·h/mL and 12827.9 ng·h/mL | CLss_F [12]: 6.46 L/h and 12.54 L/h and 10.51 L/h and 8.31 L/h and 12.53 L/h and 7.77 L/h and 10.12 L/h and 14.62 L/h and 8.19 L/h | Cmax [12]: 1420 ng/mL and 607 ng/mL and 842 ng/mL and 590 ng/mL and 1230 ng/mL and 1220 ng/mL and 938 ng/mL and 1880 ng/mL | Tmax [12]: 2 h | CLss_F (Cohort A1, 115 mg/m2 per dose, C1D15, Geometric Mean, N 6): 11.462 L/h | AUC_TAU [13]: 14092.4 ng·h/mL | CLss_F [13]: 16.79 L/h | Cmax [13]: 2090 ng/mL | CLss_F (Cohort A1, 115 mg/m2 per dose, C1D15, Median, N 6): 10.95 L/h | AUC_TAU [14]: 5878.52 ng·h/mL | CLss_F [14]: 7.45 L/h | Cmax [14]: 708 ng/mL | Tmax [14]: 1 h | AUC_TAU [15]: 8206.77 ng·h/mL and 6238.52 ng·h/mL and 11011.1 ng·h/mL and 5878.52 ng·h/mL and 8933.2 ng·h/mL and 14092.4 ng·h/mL | CLss_F [15]: 15.84 L/h and 9.62 L/h and 9.99 L/h and 11.91 L/h and 16.79 L/h and 7.45 L/h | Cmax [15]: 708 ng/mL and 1210 ng/mL and 1530 ng/mL and 859 ng/mL and 2090 ng/mL | Tmax [15]: 2 h | CLss_F (Cohort A2, 100 mg per dose, C1D15, Geometric Mean, N 5): 14.731 L/h | AUC_TAU [16]: 16686 ng·h/mL | CLss_F [16]: 32.13 L/h | Cmax [16]: 1830 ng/mL | CLss_F (Cohort A2, 100 mg per dose, C1D15, Median, N 5): 16.3 L/h | AUC_TAU [17]: 3111.99 ng·h/mL | CLss_F [17]: 5.99 L/h | Cmax [17]: 341 ng/mL | Tmax [17]: 1 h | AUC_TAU [18]: 16686 ng·h/mL and 10710.2 ng·h/mL and 3111.99 ng·h/mL and 4225.59 ng·h/mL | CLss_F [18]: 5.99 L/h and 9.34 L/h and 32.13 L/h and 16.3 L/h and 23.67 L/h | Cmax [18]: 1830 ng/mL and 1630 ng/mL and 341 ng/mL and 528 ng/mL | Tmax [18]: 2 h | AUC_TAU (Cohort A2, 150 mg per dose, C1D15, Max, N 10): 8297.22 ng·h/mL | AUC_TAU [19]: 4999.09 ng·h/mL | Cmax [19]: 502 ng/mL | Tmax [19]: 1 h | AUC_TAU [20]: 7380.68 ng·h/mL and 6784.89 ng·h/mL and 4999.09 ng·h/mL and 5689.56 ng·h/mL and 7693.93 ng·h/mL and 6576.81 ng·h/mL and 7115.87 ng·h/mL and 7004.8 ng·h/mL and 8297.22 ng·h/mL | CLss_F [20]: 25.34 L/h and 20.32 L/h and 22.11 L/h and 30.01 L/h and 26.36 L/h and 19.5 L/h and 22.81 L/h and 21.08 L/h | Cmax [20]: 647 ng/mL and 750 ng/mL and 502 ng/mL and 670 ng/mL and 912 ng/mL and 943 ng/mL and 602 ng/mL and 814 ng/mL | Tmax [20]: 2 h | AUC_TAU [21]: 5523.12 ng·h/mL | Cmax [21]: 721 ng/mL | Tmax [21]: 2 h | AUC_TAU [22]: 5523.12 ng·h/mL | Cmax [22]: 721 ng/mL | Tmax [22]: 2 h | CLss_F (Cohort B2, 115 mg/m2 per dose, C1D15, Geometric Mean, N 6): 13.049 L/h | AUC_TAU [23]: 17825.7 ng·h/mL | CLss_F [23]: 20.8 L/h | Cmax [23]: 2190 ng/mL | Tmax [23]: 2 h | CLss_F (Cohort B2, 115 mg/m2 per dose, C1D15, Median, N 6): 12.47 L/h | AUC_TAU [24]: 5493.74 ng·h/mL | CLss_F [24]: 7.85 L/h | Cmax [24]: 766 ng/mL | Tmax [24]: 1 h | AUC_TAU [25]: 17825.7 ng·h/mL and 6932.9 ng·h/mL and 8905.09 ng·h/mL and 5493.74 ng·h/mL and 6008.87 ng·h/mL and 6951.39 ng·h/mL | Cmax [25]: 2190 ng/mL and 1680 ng/mL and 1330 ng/mL and 766 ng/mL | Tmax [25]: 2 h | Tlast [26]: 24 h | Tmax (Cycle 1 Day 1, Cohort A1, 95 mg/m2 per dose, listed as lorlatinib, in h (unit assumed)): 2 | Tlag [26]: 0 h | Tlast [27]: 24 h | Tmax (Cycle 1 Day 1, Cohort A1, 115 mg/m2 per dose, in h (unit assumed)): 1 | Tmax (Cycle 1 Day 1, Cohort A1, 115 mg/m2 per dose, listed as lorlatinib, in h (unit assumed)): 2 | Tlag [27]: 0 h | AUMClast [28]: 83897.37077 and 79949.21779 and 69497.95951 and 102751.9946 and 91445.2354 and 87523.98089 and 72181.31228 | Tlast [28]: 24 h | MRTlast [29]: 8.731 and 10.12 and 8.547 and 10.11 and 9.639 and 8.636 | Tmax [29]: 2 | Clast (Cycle 1 Day 1, Cohort A2, 150 mg per dose, in ng/mL): 158 and 127 and 138 and 146 and 206 | AUCall [30]: 9157 and 6869 and 12022.44647 and 9046 and 9080 | AUClast [30]: 9157 and 6869 and 12022.44647 and 9046 and 9080 and 8359

Reference: publication PMC10202811 (Nature Medicine, 2023)
